Assays:
[1] = system: mammary cancer (tubulo-pillaryadenocarcinoma or mixed-type tumour); assay: Gallium chloride therapy in bitches with mammary cancer (primary tumour or recurrence); assay type: in vivo, female dogs
Method: (§1) The anti-tumoral effect of gallium chloride was firstly studied in female dogs having spontaneous malignant tumours of the breast. Gallium chloride therapy was carried out in bitches having a mammary cancer (tubulo-pillaryadenocarcinoma or mixed-type tumour); treatment started either at the stage of the primary tumour (4 bitches) or upon a recurrence after a surgical excision (10 bitches).
(1) In the 4 bitches treated at the primary tumour stage, the following was observed:
In two cases, the treatment was continued for two months, the tumour reducing from 10×7 cm to 8.5×7 cm in one case and from 1.5×1.3 to 1.5×1.0 cm in the other case.
(§2) In the third case, the treatment could be continued for more than six months in a very old bitch of 14 years.
(2) In the 10 bitches treated at the recurrence stage, the following was observed: […]

[2] = Clinical, renal and biological tolerance in bitches; assay type: in vivo, female dogs
Method: as §1, §2
Posology of gallium chloride, per os: 7.5 mg/kg from 15.4.1981 to 14.9.1981, then 10 mg/kg.

[3] = Acute toxicity on the mouse; assay type: in vivo; conditions: per os
[4] = system: bilateral cystadenocarcinoma of the ovary; assay: 1st patient: gallium chloride treatment, tumour response; assay type: in vivo, human
Method: Mrs. […] An epiploic and ganglionary invasion was discovered. Cobalt therapy was then carried out from Nov. 5th, 1979 to Feb. […] Treatment by gallium chloride started on Nov. […] An echotomograph on Dec. […] A third echotomograph was made on Jan. […] However, this was refused by the patient. On Mar.

[5] = system: malignant melanoma; assay: 3rd patient: gallium chloride treatment, tumour response; assay type: in vivo, human
Text: On Sept. […] This was the case. . . […] Up to Nov. […] It was from Sept.

[6] = system: adenocarcinoma of the colon; assay: 4th patient: gallium chloride treatment, tumour response; assay type: in vivo, human
Text: A person . . . […] On Oct. […] An exploratory laparotomy was made on Nov. […] 7th, 1982.

[7] = system: epidermoid carcinoma of the oesophagus; assay: 5th patient: gallium chloride treatment, tumour response; assay type: in vivo, human
Text: A person . . . Michel: the diagnosis of differenciated, mature and infiltrating epidermoid carcinoma of the oesophagus was made on Sept. 3rd, 1981. This was a voluminous tumour, extending from 23 to 32 cm, from the dental arches (according to the data from the endoscopy) with an invasion of the rear face of the origin of the left principal bronchus and the carina tracheae. In the bronchoscopy of Sept. 8th, 1981, there was a necrotic tumoral bud obstructing the light of the bronchus by two-thirds.
(§3) Gallium chloride therapy was started on Sept.
A further bronchoscopy was made on Oct. […] The existence of a considerable sub-jacent bronchial stasis and of daily dispnoeic attacks in the evening led to treatment of this bronchial tumour by laser on Oct. 20th, 1981. […] Feeding by the oral route was stopped, as well as the gallium chloride treatment and, after parenteral feeding, a celestine prosthesis was positioned by endoscopic route on Nov. 3rd, 1981. The sequels of the positioning of the prosthesis was marked by the appearance of an infectious bronchial syndrome which led to death of the patient on Nov. 18th, 1981.

[8] = Clinical and biological tolerance in patients
Method: Mrs. […] Post-operative chemotherapy (5-fluoro-uracil and endoxan) was then effected up to April 1979. At that time, […] underwent a second operation with excision of the remaining cervix and omentectomy. […] Cobalt therapy was then carried out from Nov. 5th, 1979 to Feb. 5th, 1980 on the abdomen, pelvis and diaphragm cupolas, then further chemotherapy (hexamethylmelamine) from August to October 1980. […] Treatment by gallium chloride started on Nov. 1 st, 1980 at the posology of 300 mg per day per os in three doses of 100 mg. […] An echotomograph on Dec. […] A third echotomograph was made on Jan. […] On Mar.
The treatment by gallium chloride was started on May 15th, 1981, at the posology of 600 mg/24 hours up to Sept. 20th, 1981, in association with a heparinotherapy at mini-doses. This heparinotherapy had been prescribed to prevent a phlebitis or pulmonary embolism following the surgical operation of April 1981 and had not been interrupted in order not to provoke the phenomenon of tumoral flare-up. [Calciparin (heparin calcium salt) 0.2 ml, 3 times per day by sub-cutaneous route]. […] On Sept. […] This was the case. . . […] 29th, 1981. […] Up to Nov. […] It was from Sept.
HOT... […] , was operated on May 14th, 1981 for an adenocarcinoma of the colon. […] An almost total colectomy was carried out, leaving 20 cm of sigmoid and a resection of the small bowel over a length of 15 cm. […] On Oct. […] An exploratory laparotomy was made on Nov. […] 7th, 1982.
as §3

[9] = therapy continued up to Nov. 10th, 1981
[10] = 800 mg/24 hours oral, one month

[Cl][Ga]([Cl])[Cl] [gallium chloride]
results in mammary tumours in the bitch ([1]; 5 mg/kg, if duration of treatment extended): good results | regression of the tumour, overall ([1]; 5 mg/kg, tumour becomes very hard): Regression of the tumour remains weak | regression of the tumour (primary tumour stage) ([1]; 4 bitches treated at primary tumour stage): a regression of the tumour in the other three cases | death (primary tumour stage) ([1]; 4 bitches treated at primary tumour stage, 1 to 5 mg/kg oral): one death on the 7th day | complete remission ([1]; 10 bitches at recurrence stage, recurrent tumour smaller than 0.6 cm at beginning, two months of treatment): three complete remissions after two months of treatment | partial regression of the tumour ([1]; 10 bitches at recurrence stage, three months of treatment): in 5 bitches, a partial regression of the tumour with hardening thereof | death (recurrence stage) ([1]; 10 bitches treated at recurrence stage): one death in the third week of treatment, due to a pulmonary metastasis | biopsies / histology at the end of the treatment ([1]; recurrence stage): tumoral cells persisted, but a histological study suggested an increase in the amorphous ground substance with a cellular rarefaction | tumour growth in one bitch ([1]; recurrence stage, 1 mg/kg one month, 2.5 mg/kg fifteen days, 5 mg/kg last fifteen days): persistent growth of the tumour in one bitch | survival ([1]; therapeutic strategy with surgical treatment after gallium chloride): seven out of eight bitches are alive | tumour response after resumption of the treatment ([1]; third case, bitch of 14 years, 2.5 mg/kg, then 1 mg/kg): regressed after resumption of the treatment | tumour development during first two months of treatment ([1]; third case, bitch of 14 years, 5 mg/kg, tumour 3.6×2 cm, doubled in four months preceding treatment): did not develop | clinical and biological tolerance, bitches overall ([2]; 5 mg/kg): excellent | clinical and renal tolerance, first bitch (OUD) ([2]; 7.5 mg/kg then 10 mg/kg per os): perfect | clinical and renal tolerance, second bitch (BEL) ([2]; 2.5, 5, then 7 mg/kg per os): perfect | dyspnoea leading to stop of treatment ([2]; dog, in vivo, 5 mg/kg): treatment was stopped for one month due to a dyspnoea | tolerance, bitches ([2]; oral, drinkable ampoules, first bitches 1 mg/kg, particularly digestive): tolerance proved to be good, particularly from the digestive point of view | LD50 [3]: 1790 mg/kg | clinical state, end of January 1981 ([4]; 300 mg per day per os): very satisfactory | superficial palpable mass, end of January 1981 ([4]; 300 mg per day per os): had disappeared | volume of the mass of the Douglas pouch, echotomograph Jan. 7th, 1981 ([4]; 300 mg per day per os): clearly decreased | mass of the Douglas pouch, echotomograph Dec. 9th, 1980 ([4]; 300 mg per day per os from Nov. 1st, 1980, 3.5 cm on Oct. 27th): maintained the same diameter | superficial mass / tissue of infiltration, echotomograph Dec. 9th, 1980 ([4]; 300 mg per day per os, 4.4 by 3 cm before treatment): the tissue of infiltration had become a sclerous tissue | death, 1st patient ([4]; after interruption of gallium chloride): death occurred on May 6th, 1981 | general state up to Sept. 20th, 1981, 3rd patient ([5]; 600 mg/24 hours with Calciparin): satisfactory, with a good appetite | general state / metastases after Calciparin interruption, 3rd patient ([5]; gallium chloride increased to 800 mg/24 hours from Sept. 29th, 1981): general state rapidly worsened, with appearance of a metastatic hepatomegaly of which the volume increased rapidly | prevention of recurrence, 4th patient ([6]; 300 ng per day (so in the source), up to Nov. 10th, 1981): insufficient | carcinoembryonic antigen rates, 4th patient, Oct. 15th, 1981 ([6]; 300 mg/24 hours oral): 9 ng/mL | carcinoembryonic antigen rates, first 4 months, 4th patient ([6]; 500 then 300 mg/24 hours oral): normal | general state, first 4 months, 4th patient ([6]; 500 then 300 mg/24 hours oral): very satisfactory | exploratory laparotomy, 4th patient ([6]; Nov. 12th, 1981): an indissectable ileomesenteric block and hepatic granulations distributed like grains of rice over the whole of the two lobes of the liver | carcinoembryonic antigen rates, 4th patient, Nov. 26th, 1981 [6, 9]: 97 ng/mL | death, 4th patient [6, 9]: death occured on Jan. 7th, 1982 | bronchial obstruction, bronchoscopy Oct. 13th, 1981, 5th patient ([7]; 800 mg/24 hours oral from Sept. 21st, 1981): the same bronchial obstruction | death, 5th patient ([7]; infectious bronchial syndrome after prosthesis, treatment already stopped): death of the patient on Nov. 18th, 1981 | clinical and biological tolerance, 1st patient ([8]; 300 mg per day per os, two months uninterrupted): good | renal, hepatic, blood cells count disturbance, 5th patient [8, 10]: no renal nor hepatic disturbance nor disturbances in the blood cells count | tolerance, 5th patient [8, 10]: tolerated perfectly well, both from the clinical and biological point of view | anorexia leading to stop of therapy, 3rd patient ([8]; 800 mg/24 hours, from Nov. 27th, 1981): virtually total anorexia | tolerance, 4th patient ([8]; 500 then 300 mg/24 hours oral, without renal disorders): perfect clinically and biologically (without renal disorders in particular) | blood cells count, hepatic balance, calcemia, phosphatemia, 2nd patient ([8]; Jan. 6th, 1982): normal | general state, 2nd patient ([8]; Jan. 6th, 1982): good, with a normal appetite | inflammatory balance (haptoglobin), 2nd patient ([8]; Jan. 6th, 1982): normal | creatinine, 2nd patient ([8]; Jan. 6th, 1982, normal): 88.50 µmol/L | tolerance, 2nd patient ([8]; Jan. 6th, 1982, oral since May 20th, 1981): perfectly well tolerated, without any digestive disorders or neurological, cardiac or cutaneous effects | weight, 2nd patient ([8]; Jan. 6th, 1982, unchanged since beginning of treatment): 71 kg | tolerance of 800 mg/24 hours, 3rd patient ([8]; Sept. 29th to Nov. 27th, 1981): tolerated up to Nov. 27th, 1981 | digestive intolerance leading to interruption, 1st patient ([8]; after Mar. 20th, 1981): had to be interrupted due to digestive intolerance | renal function and blood cells count, 3rd patient ([8]; up to Nov. 27th, 1981): normal | weight, 3rd patient ([8]; up to Sept. 20th, 1981, 600 mg/24 hours with Calciparin, stable): 70 kg

Source: patent US4596710A, “Gallium chloride as a new anti-cancerous drug” (priority 1981, dated 1986)
